Data: patent US10029986B2, “Alkynyl pyridine-substituted amide compound and pesticide” (NISSAN CHEMICAL INDUSTRIES, LTD., priority 2014, dated 2018)

Test system: Southern root-knot nematode (Meloidogyne incognita)
Test: Test on the preventive effect against Southern root-knot nematode (garden balsam seedlings)
Format: in vivo
Settings: 504 h, test solution B 100 ppm, 1 ml per seedling to base of garden balsam seedlings, 3 weeks in greenhouse, read-out: efficacy (root knot damage degree relative to non-treated plot)
Experimental: Compounds of the present invention were dissolved in dimethyl sulfoxide to prepare 1 wt % solutions. Then, distilled water was added to dilute the solutions to the prescribed concentration (100 ppm), and the obtained solutions were used in the following the Test Examples 9 to 12. 1 ml per seedling of test solution B of the compounds of the present invention was treated to the bases of garden balsam seedlings (about 2 weeks after budding) planted in a cell tray of which each cell was filled with 10 g of soil. 1 hour after the application, 1 ml per cell of water containing Southern root-knot nematode (Meloidogyne incognita) 2 L larvae (100 larvae of 2 L/1 ml) was applied to the base. The tray was placed in a greenhouse for 3 weeks, and the degree of root knot on the root was determined in accordance with the following damage index and the damage degree to calculate the efficacy (%) relative to the non-treated plot in accordance with the following formula. • 0: No knot formation was observed. • 1: Knot formations were observed on parts of the root system. • 2: Knot formations were observed on the entire root system. • 3: Large knot formations were observed. • 4: Large knot formations were observed on the entire root system. [Damage degree]=[Σ(damage index×number of each damaged indexed seedling)/(4×number of seedlings investigated)]×100 Efficacy (%)=[1−(damage degree in treated plot/damage degree in non-treated plot)]×100

SMILES: COC(c1ncc(C#CC2CC2)cc1Cl)C(C)NC(=O)c1ccccc1C(F)(F)F (stereo not shown) [1-024]
- pest or weed control at 100 µg/mL: ≥ 50%

SMILES: CC(CNC(=O)c1cccnc1Cl)c1ncc(C#CC2CC2)cc1Cl (stereo not shown) [3-005]
- pest or weed control at 100 µg/mL: ≥ 50%

SMILES: CC(CNC(=O)c1cccnc1C(F)F)c1ncc(C#CC2CC2)cc1Cl (stereo not shown) [3-006]
- pest or weed control at 100 µg/mL: ≥ 50%

SMILES: CC(C)(C)C#Cc1cnc(CCNC(=O)c2ccccc2C(F)(F)F)c(Cl)c1 [1-003, N-[2-[3-chloro-5-(3,3-dimethyl-1-butynyl)pyridin-2-yl]ethyl]-2-(trifluoromethyl)benzamide]
- pest or weed control at 100 µg/mL: ≥ 50%

SMILES: O=C(NCC(c1ncc(C#CC2CC2)cc1Cl)C1CC1)c1ccccc1C(F)(F)F (stereo not shown) [1-009]
- pest or weed control at 100 µg/mL: ≥ 50%

SMILES: CSC(CNC(=O)c1cccnc1C(F)F)c1ncc(C#CC2CC2)cc1Cl (stereo not shown) [3-020]
- pest or weed control at 100 µg/mL: ≥ 50%

SMILES: CC(C)(C)C#Cc1cnc(CCNC(=O)c2cccnc2C(F)F)c(Cl)c1 [3-002]
- pest or weed control at 100 µg/mL: ≥ 50%

SMILES: COC(c1ncc(C#CC(C)(C)C)cc1Cl)C(C)NC(=O)c1ccccc1C(F)(F)F (stereo not shown) [1-025]
- pest or weed control at 100 µg/mL: ≥ 50%

SMILES: O=C(NCC(F)(F)c1ncc(C#CC2CC2)cc1Cl)c1cccnc1C(F)F [3-003, N-[2-[3-chloro-5-(cyclopropylethynyl)pyridin-2-yl]-2,2-difluoroethyl]-2-(difluoromethyl)nicotinamide]
- pest or weed control at 100 µg/mL: ≥ 50%

SMILES: COC(c1ncc(C#CC2CC2)cc1Cl)C(C)NC(=O)c1cccnc1C(F)F (stereo not shown) [3-021]
- pest or weed control at 100 µg/mL: ≥ 50%

SMILES: COC(c1ncc(C#CC2CC2)cc1Cl)C(C)NC(=O)c1sc(C)nc1C(F)F (stereo not shown) [9-006a]
- pest or weed control at 100 µg/mL: ≥ 50%

SMILES: O=C(NCCc1ncc(C#CC2CC2)cc1Cl)c1cccnc1C(F)F [3-001, N-[2-[3-chloro-5-(cyclopropylethynyl)pyridin-2-yl]ethyl]-2-(difluoromethyl)nicotinamide]
- pest or weed control at 100 µg/mL: ≥ 50%

SMILES: COC(c1ncc(C#CC2CC2)cc1Cl)C(C)NC(=O)c1cn(C)nc1C(F)F (stereo not shown) [8-028, N-[2-[3-chloro-5-(cyclopropylethynyl)pyridin-2-yl]-2-methoxy-1-methylethyl]-3-difluoromethyl-1-methyl-1H-pyrazole-4-carboxamide]
- pest or weed control at 100 µg/mL: ≥ 50%

SMILES: Cn1cc(C(=O)NCC(c2ncc(C#CC3CC3)cc2Cl)C2CC2)c(C(F)F)n1 (stereo not shown) [8-009]
- pest or weed control at 100 µg/mL: ≥ 50%

SMILES: CC(CNC(=O)c1ccccc1C(F)(F)F)c1ncc(C#CC2CC2)cc1Cl (stereo not shown) [1-007, N-[2-[3-chloro-5-(cyclopropylethynyl)pyridin-2-yl]propyl]-2-(trifluoromethyl)benzamide]
- pest or weed control at 100 µg/mL: ≥ 50%

SMILES: Cn1cc(C(=O)NCCc2ncc(C#CC(C)(C)C)cc2Cl)c(C(F)F)n1 [8-002]
- pest or weed control at 100 µg/mL: ≥ 50%

SMILES: O=C(NCC(c1ncc(C#CC2CC2)cc1Cl)C1CC1)c1cccnc1C(F)F (stereo not shown) [3-008]
- pest or weed control at 100 µg/mL: ≥ 50%

SMILES: COC(CNC(=O)c1cn(C)nc1C(F)F)c1ncc(C#CC2CC2)cc1Cl (stereo not shown) [8-019]
- pest or weed control at 100 µg/mL: ≥ 50%

SMILES: CC(CNC(=O)c1cn(C)nc1C(F)F)c1ncc(C#CC2CC2)cc1Cl (stereo not shown) [8-007]
- pest or weed control at 100 µg/mL: ≥ 50%

SMILES: Cn1cc(C(=O)NCCc2ncc(C#CC3CC3)cc2Cl)c(C(F)F)n1 [8-001]
- pest or weed control at 100 µg/mL: ≥ 50%

SMILES: O=C(NCC(F)(F)c1ncc(C#CC2CC2)cc1Cl)c1ccccc1C(F)(F)F [1-005]
- pest or weed control at 100 µg/mL: ≥ 50%

SMILES: C=C(CNC(=O)c1ccccc1C(F)(F)F)c1ncc(C#CC)cc1Cl [1-012, N-[2-[3-chloro-5-(1-propynyl)pyridin-2-yl]-2-propenyl]-2-(trifluoromethyl)benzamide]
- pest or weed control at 100 µg/mL: ≥ 50%
